The results in this text go back to ChEMBL document CHEMBL1144392, “2,3-Diaminopyridine as a platform for designing structurally unique nonpeptide bradykinin B1 receptor antagonists” (Bioorg Med Chem Lett, 2005).

One data set has as its target T1, B1 bradykinin receptor (Homo sapiens, UniProt P46663).
T1 sequence (P46663 whole entry): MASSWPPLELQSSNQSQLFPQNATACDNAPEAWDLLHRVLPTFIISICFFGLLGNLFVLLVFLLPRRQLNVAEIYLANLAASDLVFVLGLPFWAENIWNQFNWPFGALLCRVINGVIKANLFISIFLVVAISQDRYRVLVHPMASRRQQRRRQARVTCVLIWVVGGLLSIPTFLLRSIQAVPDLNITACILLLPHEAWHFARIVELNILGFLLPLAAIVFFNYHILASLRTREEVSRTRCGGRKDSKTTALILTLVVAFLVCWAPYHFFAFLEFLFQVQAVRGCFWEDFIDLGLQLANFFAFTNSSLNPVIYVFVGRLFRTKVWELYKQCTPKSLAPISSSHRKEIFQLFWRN
The experiment in a line: Inhibitory constant against human Bradykinin receptor B1 expressed in chinese hamster ovary cells. The class given is cell-based, CHO.

Data set [1] can be described thus: Clearance in the Sprague Dawley rats; (n = 3). The settings on record: rat, in vivo. It is filed as ADME, organism-based.
Data set [2] can be described thus: Half life in the Sprague Dawley rats; (n = 3). It is filed as ADME. The settings on record: rat, in vivo.
Data set [3] in a line: Oral bioavailability in the Sprague Dawley rats; (n = 3). The settings on record: rat, in vivo. It is filed as ADME, organism-based.
The nature of data set [4]: Half life in the Sprague Dawley rats; (n = 3); ND = not determined. It is filed as ADME. As to conditions: rat, in vivo.

What is called Ki is the equilibrium dissociation constant of an inhibitor or competing ligand from its target. A lower Ki goes with tighter binding. As a reminder, the clearance is a measure of how efficiently the substance is removed, as volume per time. As usually defined, the half-life is the time needed for the level to fall by half in the phase considered. As usually defined, the bioavailability is dose-corrected exposure relative to a reference, in per cent. On to `Cc1ccnc(NCc2ccc(-c3ccccc3C(=O)O)cc2)c1NC(=O)CC#N`, for which the Ki at B1 bradykinin receptor stood at 11.5 nM. The same molecule returned a clearance in data set [1] of 4.3 mL/min/kg. In addition, in data set [2], the half-life was 120 min. In data set [3], the bioavailability worked out at 19%.

For `CCC(=O)Nc1cccnc1NCc1ccc(-c2ccccc2C(=O)OC)cc1`, the Ki at B1 bradykinin receptor worked out at 119 nM.

The molecule `COCC(=O)Nc1cccnc1NCc1ccc(-c2ccccc2C(=O)OC)cc1` yielded a Ki at B1 bradykinin receptor of 390 nM. Against the preceding molecule, the Ki is about 3.3-fold higher.

Turning to `CCCC(=O)Nc1cccnc1NCc1ccc(-c2ccccc2C(=O)OC)cc1`, the Ki on B1 bradykinin receptor worked out at 88 nM. Also, the clearance in data set [1] came out at 23 mL/min/kg. Also, the half-life in data set [2] was 24 min. This molecule came in with a bioavailability in data set [3] of 15%.

`COC(=O)c1ccccc1-c1ccc(CNc2ncccc2NC(=O)CC(F)(F)F)cc1`: the half-life in data set [4] is 12 min. This molecule displayed a clearance in data set [1] of 35 mL/min/kg. In data set [3], the bioavailability was 9%.

As to `CNC(=O)c1ccccc1-c1ccc([C@@H](C)Nc2nccc(C)c2NC(=O)CC(F)(F)F)cc1`, the affinity at B1 bradykinin receptor corresponds to a Ki of 6 nM. Besides, in data set [1], the clearance worked out at 31 mL/min/kg. This molecule showed a half-life in data set [2] of 30 min. The same molecule came in with a bioavailability in data set [3] of 25%.

In the case of `CNC(=O)c1ccccc1-c1ccc(CNc2nccc(C)c2NC(=O)CC(F)(F)F)cc1`, on B1 bradykinin receptor, the affinity, expressed as Ki, was 11 nM. The clearance in data set [1] came out at 30 mL/min/kg. This molecule had a half-life in data set [2] of 60 min. Also, the bioavailability in data set [3] is 79%.

`COC(=O)c1ccccc1-c1ccc(CNc2ncccc2NC(=O)CC#N)cc1`: on B1 bradykinin receptor, the affinity corresponds to a Ki of 11 nM. The molecule further registered a clearance in data set [1] of 18 mL/min/kg. For the same molecule, in data set [2], the half-life is 48 min. The bioavailability in data set [3] came out at 28%.

In turn, `CCCCC(=O)Nc1cccnc1NCc1ccc(-c2ccccc2C(=O)OC)cc1` displayed a clearance in data set [1] of 30 mL/min/kg. Moreover, in data set [2], the half-life is 12 min. The molecule also returned a bioavailability in data set [3] of 2%.

`COC(=O)c1ccccc1-c1ccc(CNc2nccc(C)c2NC(=O)CC(F)(F)F)cc1` had a Ki at B1 bradykinin receptor of 7.1 nM. In data set [1], this molecule gave a clearance of 14 mL/min/kg. Besides, the half-life in data set [2] was 24 min. The same molecule registered a bioavailability in data set [3] of 40%.

For the molecule `COC(=O)c1ccccc1-c1ccc([C@@H](C)Nc2nccc(C)c2NC(=O)CC(F)(F)F)cc1`, at B1 bradykinin receptor, the affinity corresponds to a Ki of 1.8 nM. Further, the clearance in data set [1] stood at 8 mL/min/kg. In addition, in data set [2], the half-life is 54 min. The bioavailability in data set [3] was 17%.

On B1 bradykinin receptor, `COC(=O)c1ccccc1-c1ccc([C@@H](C)Nc2nccc(C)c2NC(=O)CC#N)cc1` returned a Ki of 2.6 nM. The clearance in data set [1] came out at 18.5 mL/min/kg. For the same molecule, the half-life in data set [2] was 12 min. For the same molecule, in data set [3], the bioavailability came to 27%.

Molecule `CNC(=O)c1ccccc1-c1ccc(CNc2ncccc2NC(=O)CC(F)(F)F)cc1` had a Ki at B1 bradykinin receptor of 33 nM. Moreover, in data set [1], the clearance worked out at 15 mL/min/kg. The molecule further gave a half-life in data set [2] of 18 min. This molecule registered a bioavailability in data set [3] of 95%.

Molecule `COC(=O)c1ccccc1-c1ccc(CNc2ncccc2NC(=O)CS(C)(=O)=O)cc1` gave a Ki at B1 bradykinin receptor of 40 nM.

As for `COC(=O)c1ccccc1-c1ccc(CNc2ncccc2NC(=O)CN(C)C)cc1`, the affinity on B1 bradykinin receptor, expressed as Ki, was 1280 nM.

Consider `COC(=O)c1ccccc1-c1ccc(CNc2ncccc2NC(=O)C(C)C)cc1`, for which, at B1 bradykinin receptor, the Ki turned out to be 230 nM.
